This note sets out measurements from PMC8703450, “New Heterocyclic Combretastatin A-4 Analogs: Synthesis and Biological Activity of Styryl-2(3H)-benzothiazolones” (Pharmaceuticals, 2021).

The structures appear in SMILES notation.

The test system of data set [1] is MCF-7 cells. In words: MTT cytotoxicity assay, MCF-7. The format is cell-based, human. As to the method: (§1) All tested compounds were dissolved in DMSO at 25 mM initial concentration and diluted with medium to obtain the working concentrations (0.01 nM–250 µM). Serial drug dilutions were prepared in medium immediately before each experiment. The DMSO working concentration in the medium was […]. For the MTT assay, cells were seeded into 96-well microtitre plates at a density of 1 × 10^4 in 100 µL complete medium per well. They were further incubated for 24 h, followed by treatment with CA-4 analogs up to 72 h. Cell viability was determined using the MTT assay. Ten µL of MTT solution (5 mg/mL) was added to each well and further incubated for 3 h at 37 °C. To dissolve the formazan product, 100 µL/well of 99.5% isopropanol was added. Cell viability was determined by measuring absorbance at 550/630 nm using a DTX880 plate reader (Beckman Coulter, USA). Results, expressed as concentrations that inhibit 20% (IC20), 50% (IC50), and 80% (IC80) of cell growth, were calculated using GraphPad Prism 8.0.1.
Table S 3.1. Description of eukaryotic cell lines used for MTT assay. […]
Kindly provided 3.1 g/L Glucose,
mammary by Prof. Iana DMEM/F12 with
Breast MDA- gland/breast; derived Tsoneva 10% FBS, 100 U/mL
MB-231 h from metastatic site: (IBPhBME – penicillin, 100 U/mL
pleural effusion; BAS) streptomycin (Lonza). […]

The nature of data set [2]: MTT cytotoxicity assay, BEAS-2B control cells. Particulars: human, read-out: Cytostatic activity (% viable cells). It counts as cell-based. As to the method:
as §1
(§2) Table S 3.1. Description of eukaryotic cell lines used for MTT assay.
(§3) Panel Cell line Origin Tissue, characteristics Source Culture conditions
(§4) (h) lung carcinoma ATCC, CCL-185 U/mL penicillin, 100
lung, bronchus; insulin, rhEGF, GA-
BEAS-2B h epithelial virus ATCC, CRL- 1000, BPE,

Data set [3] concerns MCF-10A cells. In words: MTT cytotoxicity assay, MCF-10A control cells. It counts as cell-based, human. To be noted: Homo sapiens, 72 h. As to the method: as §1, §2
(§5) Panel Cell line Origin Tissue, characteristics Source Culture conditions […]
(§6) (h) lung carcinoma ATCC, CCL-185 U/mL penicillin, 100 […]
(§7) lung, bronchus; insulin, rhEGF, GA-BEAS-2B h epithelial virus ATCC, CRL- 1000, BPE, transformed 9609 transferrin,
(§8) HT-29 h colon, colorectal Radostina adenocarcinoma Alexandrova 3.1 g/L D-Glucose […]

Data set [4] deals with EA.hy926 cells. In words: Matrigel tube disruption assay. The format is cell-based, human. To be noted: EA.hy926 on Matrigel, 24 h of treatment. Here is the method: The tube formation assay was performed in 96-well plates coated with 40 µL BD Matrigel™ (basement membrane matrix), following the manufacturer’s instruction (BD Biosciences). A total of 2 × 10^4 EA.hy926 cells was re-suspended in growth medium and added to each well in a final volume of 100 µL. Tube formation was visualized directly using a light microscope. Images were captured using a phase-contrast microscope and quantitation was performed using the WimTube application of the Wimasis online image analysis platform (https://www.wimasis.com/en/products/13/WimTube; accessed on 1 June 2021).

Data set [5] relates to Colon-26 cells. As to the kind of experiment: MTT cytotoxicity assay, Colon-26. It counts as cell-based. To be noted: Mus musculus, 72 h. Here is the method: as §1, §2, §5, §6, §7, §8
Data set [6] has as its system A549 cells. As to the kind of experiment: MTT cytotoxicity assay, A549. The format is cell-based. To be noted: Homo sapiens, 72 h. Here is the method: as §1, §2, §3, §4
lung, bronchus; insulin, rhEGF, GA- […]
Colon BAS) 10% (v/v) FBS, 100

Data set [7] relates to EA.hy926 cells. As to the kind of experiment: In vitro cell migration (wound-healing) assay. The format is cell-based, human. Particulars: 24 h. Here is the method:
A total of 3 × 10^5 EA.hy926 cells were seeded in a 12-well plate and grown close to the confluence. The cell monolayer was gently scraped with a P200 pipette tip, creating a wound area around 1-mm wide. Cells were washed twice with fresh medium and treated with test compounds diluted in growth media to the corresponding sub-toxic concentrations. Images were acquired at 0 and 24 h following treatment. After incubation for 24 h, the scratch wound width was measured and recorded, and then compared with the initial scratch wound width at 0 h. Using the ImageJ image processing program (ImageJ150-WIN-Java8), the size of the denuded area in pixels was determined at each time point from the digital images.

Data set [8] deals with EA.hy926 cells. In words: MTT cytotoxicity / growth inhibition assay, EA.hy926. To be noted: Homo sapiens; for IC50: EA.hy 926, 72 h of treatment. It counts as cell-based, human. As to the method:
The endothelial cell line (EA.hy926) was kindly provided by Dr. C-J.S. Edgell—University of North Carolina, USA. Cells were cultured in 4.5 g/L D-Glucose DMEM/F12 medium, supplemented with 10% fetal bovine serum (FBS, Cytogen GmBH, Greven, Germany) and 100 U/mL penicillin and streptomycin (Lonza BioWhitaker, Verviers, Belgium). The other cell lines used are described in Table S3.1. Cell cultures were maintained in an incubator at 37 °C with 95% humidity and 5% CO2 and were routinely found free of mycoplasma.
as §1

Data set [9] deals with EA.hy926 cells. As to the kind of experiment: Immunofluorescence of mitotic spindles (α-tubulin). It counts as cell-based, human. Particulars: 24 h. As to the method:
Indirect immunofluorescence was used to examine the effect of 26Z on α-tubulin in EA.hy 926 cells. A total of 1 × 10^4 cells grown on coverslips were washed with PBS and fixed with 3.7% buffered paraformaldehyde. Single fluorescence cell labeling was performed, as described by Apostolova et al., with a primary chicken antibody against α-tubulin (ab89984, Abcam) for 2 h. Cells were washed three times with PBS for 5 min and incubated for 60 min with a goat anti-chicken secondary antibody labeled with AlexaFluor-488 (ab150173, Abcam). F-actin was detected using AlexaFluor-568 Phalloidin (Invitrogen, MA, USA). Following three washes with PBS and two in water, the slides were mounted in UltraCruz fluorescence mounting medium with DAPI (sc-24941, Santa Cruz Biotechnology, USA). Fluorescence microscopy was performed with a Carl Zeiss Axiovert 200 M Inverted Microscope and Andor Dragonfly 505 Confocal Microscope equipped with an iXon Ultra 888 EMCCD camera (Andor, Oxford Instruments, Belfast, Northern Irelands).

Data set [10] can be described thus: MTT cytotoxicity assay, MCF-10A control cells. It counts as cell-based, human. Particulars: human, read-out: Cytostatic activity (% viable cells). As to the method: as §1, §2, §5, §6, §7, §8

Consider `COc1ccc(/C=C\c2cc(OC)c(OC)c(OC)c2)cc1O` [CA-4, Combretastatin A-4], for which the “Cytostatic activity (% viable cells)” value in data set [1] (MCF-7 cells, 72 h, MTT, in the concentration range studied) amounted to 40%. In addition, the viability at 72 h in data set [2] (BEAS-2B cells) is 80%. Also, the half-maximal inhibitory concentration (IC50) in data set [3] stood at 1.64 ± 0.34 µM; in data set [5], 0.66 ± 0.082 µM; in data set [6], 3.01 ± 0.16 µM; in [8], 0.0033 ± 0.0002 µM. Also, the “decrease of branching points” value in data set [4] (equitoxic IC50 concentration) came to 50%. Further, the “reduction of loop numbers” value in data set [4] (equitoxic IC50 concentration) came to 56 ± 3%. The “remaining mean wound opened area” value in data set [7] (EA.hy926, 1 nM) amounted to 24.4%.
Regarding `COc1cc(/C=C\c2ccc3c(c2)sc(=O)n3C)cc(OC)c1OC` [Compound 26Z, (Z)-3-methyl-6-(3,4,5-trimethoxystyryl)-2(3H)-benzothiazolone], the concentration for half-maximal inhibition (IC50) in data set [1] (Homo sapiens, MCF7, 72 h) stood at 2.42 ± 0.48 µM; in [8] it was 0.13 ± 0.01 µM. For the same molecule, the viability at 72 h in data set [2] stood at 80%; in [10] it was 65%. Besides, the “number of spindle poles (multipolarity)” value in data set [9] (EA.hy926, IC50 (130 nM)) turned out to be 3.9 ± 0.99; in [9] (EA.hy926, IC80 (300 nM)) it was 8.8 ± 2.3. Moreover, the “reduction in cumulative tube length” value in data set [4] (IC50 concentration, compared with time 0) is listed as ~ 70%. Further, the “decrease of branching points” value in [4] (equitoxic IC50 concentration) is given as 63%. Moreover, the “remaining mean wound opened area” value in [7] (EA.hy926, 50 nM) was 49%. In [8] (EA.hy 926, concentration that inhibits 20% of cell growth), this molecule yielded an IC20 of 0.04 ± 0.01 µM. In [8] (EA.hy 926, concentration that inhibits 80% of cell growth), this molecule registered a concentration for an effect of 80% (IC80) of 0.3 ± 0.04 µM.
